In the supplement of paper PMC9938120:

Experiments:
Assay in all cases: drug sensitivity score (DSS3, normalised partial AUC of % inhibition dose-response) (DSS (score)); higher = more sensitive (stronger inhibition of viability); extreme values may be limits of the assay
FMOC02_3 = patient-derived low-grade serous ovarian cancer cells; conditions: 72 h; library: FO5A; assay format: 2D, 384-well, CellTiter-Glo
Summary of the method: (§1)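 On 384-well flat clear-bottom plates carrying compounds at five concentrations across a 10,000-fold range, patient-derived ovarian cancer cells below passage 10 were incubated for 72 h at 37 °C with 5% CO2. CellTiter-Glo readout of viability was processed in Breeze. A higher drug sensitivity score, defined as the partial area under the percent-inhibition dose-response curve divided by the log of the upper asymptote, means greater sensitivity.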

FMOC11 = patient-derived high-grade serous ovarian cancer cells; conditions: 72 h; library: FO5A; assay format: 2D, 384-well, CellTiter-Glo
Summary of the method: as §1

FMOC25_2 = patient-derived low-grade serous ovarian cancer cells; conditions: 72 h; library: FO5A; assay format: 2D, 384-well, CellTiter-Glo
Summary of the method: as §1

FMOC04 = patient-derived high-grade serous ovarian cancer cells; conditions: 72 h; library: FO5A; assay format: 2D, 384-well, CellTiter-Glo
Summary of the method: as §1

FMOC14 = patient-derived high-grade serous ovarian cancer cells; conditions: 72 h; library: FO5A; assay format: 2D, 384-well, CellTiter-Glo
Summary of the method: as §1

FMOC02_2 = patient-derived low-grade serous ovarian cancer cells; conditions: 72 h; library: FO5A; assay format: 2D, 384-well, CellTiter-Glo
Summary of the method: as §1

FMOC09 = patient-derived high-grade serous ovarian cancer cells; conditions: 72 h; library: FO5A; assay format: 2D, 384-well, CellTiter-Glo
Summary of the method: as §1

FMOC02_1 = patient-derived low-grade serous ovarian cancer cells; conditions: 72 h; library: FO5A; assay format: 2D, 384-well, CellTiter-Glo
Summary of the method: as §1

FMOC17 = patient-derived low-grade serous ovarian cancer cells; conditions: 72 h; library: FO5A; assay format: 2D, 384-well, CellTiter-Glo
Summary of the method: as §1

FMOC25_1 = patient-derived low-grade serous ovarian cancer cells; conditions: 72 h; library: FO4B; assay format: 2D, 384-well, CellTiter-Glo
Summary of the method: as §1

FMOC24 = patient-derived high-grade serous ovarian cancer cells; conditions: 72 h; library: FO5A; assay format: 2D, 384-well, CellTiter-Glo
Summary of the method: as §1

FMOC06 = patient-derived mucinous ovarian cancer cells; conditions: 72 h; library: FO5A; assay format: 2D, 384-well, CellTiter-Glo
Summary of the method: as §1

FMOC03 = patient-derived mucinous ovarian cancer cells; conditions: 72 h; library: FO5A; assay format: 2D, 384-well, CellTiter-Glo
Summary of the method: as §1

FMOC22 = patient-derived mucinous ovarian cancer cells; conditions: 72 h; library: FO5A; assay format: 2D, 384-well, CellTiter-Glo
Summary of the method: as §1

FMOC27 = patient-derived low-grade serous ovarian cancer cells; conditions: 72 h; library: FO5A; assay format: 2D, 384-well, CellTiter-Glo
Summary of the method: as §1

FMOC28 = patient-derived low-grade serous ovarian cancer cells; conditions: 72 h; library: FO5A; assay format: 2D, 384-well, CellTiter-Glo
Summary of the method: as §1

| Compound | drug sensitivity score (FMOC02_3) | drug sensitivity score (FMOC11) | drug sensitivity score (FMOC25_2) | drug sensitivity score (FMOC04) | drug sensitivity score (FMOC14) | drug sensitivity score (FMOC02_2) | drug sensitivity score (FMOC09) | drug sensitivity score (FMOC02_1) | drug sensitivity score (FMOC17) | drug sensitivity score (FMOC25_1) | drug sensitivity score (FMOC24) | drug sensitivity score (FMOC06) | drug sensitivity score (FMOC03) | drug sensitivity score (FMOC22) | drug sensitivity score (FMOC27) | drug sensitivity score (FMOC28) |
| --- | --- | --- | --- | --- | --- | --- | --- | --- | --- | --- | --- | --- | --- | --- | --- | --- |
| CNc1nc(-c2ccc3c(N)n[nH]c3c2)cc(N2C[C@@H](C(=O)NC3CCCCC3)CC[C@H]2C)n1 | 0.8 | 0 | 5.7 | 0.5 | 0.6 | 8.7 | 0 | 3.8 | 0 | 6.9 | 0 | 4.2 | 0 | 0 | 1.4 | 6 |
| CCN(CC)CCNC(=O)c1c(C)[nH]c(/C=C2\C(=O)Nc3ccc(F)cc32)c1C [Sunitinib] | 0.6 | 0 | 0.5 | 0 | 0 | 0.9 | 0 | 2.3 | 0.1 | 0 | 0 | 0 | 0 | 0 | 0 | 0 |
| c1cn2cc(-c3ccc4cn[nH]c4c3)nc(Nc3ccc(N4CCOCC4)cc3)c2n1 [Entospletinib] | 0 | 0.7 | 0 | 0 | 0 | 3.2 | 0 | 4.3 | 1.8 | 0.1 | 0 | 0 | 0 | 0 | 0 | 0 |
| CC(C)C[C@H](NC(=O)[C@@H](COC(C)(C)C)NC(=O)[C@H](Cc1ccc(O)cc1)NC(=O)[C@H](CO)NC(=O)[C@H](Cc1c[nH]c2ccccc12)NC(=O)[C@H](Cc1cnc[nH]1)NC(=O)[C@@H]1CCC(=O)N1)C(=O)N[C@@H](CCCNC(=N)N)C(=O)N1CCC[C@H]1C(=O)NNC(N)=O [Goserelin] | 0 | 0 | 0 | 0 | 0 | 0 | 0 | 0 | 0 | 0 | 0 | 0 | 0 | 0 | 0 | 0 |
| COc1cc(CCc2cc(NC(=O)c3ccc(N4CC(C)NC(C)C4)cc3)n[nH]2)cc(OC)c1 (stereo not drawn) [AZD4547] | 0 | 0 | 0 | 0 | 0 | 0 | 0 | 0 | 0 | 0 | 0 | 0 | 0 | 0 | 0 | 0 |
| CN(C)C(=O)c1cc2cnc(Nc3ccc(N4CCNCC4)cn3)nc2n1C1CCCC1 [Ribociclib] | 4.4 | 0 | 0.8 | 0.05 | 0 | 1.8 | 0 | 3.1 | 0.3 | 0 | 1.8 | 0.6 | 0.5 | 0 | 0.6 | 1.7 |
| CNC(=O)c1ccc(N2C(=S)N(c3ccc(C#N)c(C(F)(F)F)c3)C(=O)C2(C)C)cc1F [Enzalutamide] | 0 | 0 | 0 | 0 | 0 | 0 | 0 | 0 | 0 | 0 | 0 | 0.1 | 0 | 0 | 0.1 | 0 |
| N#CC(c1ccnc(OCc2ccc(CN3CCOCC3)cc2)n1)c1nc2ccccc2s1 (stereo not drawn) [Bentamapimod] | 1.7 | 3.2 | 1 | 0.4 | 2.3 | 0.9 | 2.9 | 1.1 | 4.2 | 0.7 | 5.8 | 2 | 2.8 | 2 | 0 | 3.8 |
| C[C@@H]1C=C2C(=O)O[C@@H]3CC[C@H](C1)[C@]23O [Galiellalactone] | 2.3 | 4 | 4.6 | 5.9 | 5.5 | 5.9 | 6.7 | 5.9 | 5.8 | 0 | 1.65 | 2.5 | 3.9 | 4.2 | 3.8 | 6.7 |
| Nc1nc(Cl)nc2c1ncn2[C@H]1C[C@H](O)[C@@H](CO)O1 [Cladribine] | 4 | 0.8 | 7.2 | 0.2 | 0 | 3.3 | 1.8 | 7 | 0.4 | 2.4 | 0 | 0.2 | 0.5 | 3.9 | 2.3 | 0.3 |
| Nc1ncnc2c1c(COc1cccc(Cl)c1)nn2C1CCOCC1 | 0.4 | 0 | 1.9 | 0 | 0.3 | 1 | 0 | 0.5 | 0 | 0.6 | 0 | 0 | 0 | 0 | 0.8 | 0 |
| CC(=O)c1c(C)c2cnc(Nc3ccc(N4CCNCC4)cn3)nc2n(C2CCCC2)c1=O [Palbociclib] | 6.2 | 1.4 | 5.2 | 0.65 | 1.6 | 4.9 | 0.5 | 3.8 | 0.7 | 2.5 | 2.95 | 2.5 | 2.7 | 0.5 | 1.1 | 3.9 |
| Cn1cc(C2=C(c3cn(C4CCN(Cc5ccccn5)CC4)c4ccccc34)C(=O)NC2=O)c2ccccc21 [Enzastaurin] | 5.8 | 0 | 0 | 0 | 5 | 4.4 | 1.5 | 4.8 | 5.1 | 0 | 3.95 | 0 | 0.5 | 0.3 | 0.3 | 0 |
| CN1CCc2c(c3ccccc3n2Cc2ccc(C(=O)NO)cc2)C1 [Tubastatin A] | 3.4 | 1.7 | 1.3 | 1.4 | 1.3 | 1.4 | 0.5 | 2.9 | 0 | 0 | 0.85 | 0 | 0.5 | 0.8 | 0 | 2.8 |
| CCCCCCCCCCCCCCCCCCOP(=O)([O-])OC1CC[N+](C)(C)CC1 [Perifosine] | 0 | 0 | 0.5 | 0 | 0 | 0 | 0 | 0 | 0 | 0 | 3.35 | 0.1 | 0 | 0 | 0 | 0 |
| Cc1c(F)cc(C(=O)NC2CC2)cc1-c1ccc(C(=O)NCC(C)(C)C)cn1 [Losmapimod] | 0 | 1.4 | 0 | 0 | 0 | 0 | 0 | 0.1 | 0 | 0 | 0 | 1 | 0 | 0 | 0 | 0 |
| CCC1(c2ccc(N)cc2)CCC(=O)NC1=O (stereo not drawn) [Aminoglutethimide] | 0.6 | 0 | 0 | 0 | 0 | 0.1 | 0 | 0 | 0.1 | 0.4 | 1.05 | 0 | 0 | 0 | 0 | 0 |
| COc1cc2c(Oc3ccc4[nH]c(C)cc4c3F)ncnc2cc1OCCCN1CCCC1 [Cediranib] | 0 | 0.2 | 0 | 0 | 0 | 0.9 | 0 | 1.1 | 0.2 | 1.7 | 1.85 | 0.5 | 0 | 0 | 0 | 1 |
| Cc1cn(-c2cc(NC(=O)c3ccc(C)c(Nc4nccc(-c5cccnc5)n4)c3)cc(C(F)(F)F)c2)cn1 [Nilotinib] | 0 | 4.6 | 1.5 | 0 | 0.9 | 1.3 | 0.7 | 3 | 2.4 | 3.4 | 3.7 | 3.4 | 3.5 | 1 | 2.3 | 5.6 |
| O=C(CCCCCCNC(=O)c1cnc(N(c2ccccc2)c2ccccc2)nc1)NO [Rocilinostat] | 5.2 | 4.3 | 6.7 | 3.2 | 4.5 | 3 | 0.8 | 4.9 | 0.7 | 2.4 | 5.4 | 3.5 | 5.1 | 4.3 | 4.8 | 0.9 |
| O=c1[nH]c(C2CCCN2)nc2c1oc1ccc(Cl)cc12 (stereo not drawn) | 3.9 | 0.4 | 0 | 0 | 0 | 0 | 0 | 2.7 | 0 | 2 | 0 | 0 | 0.3 | 0 | 0 | 4.4 |
| O=C(Nc1cccnc1)N1CCC(Cc2cccc(Oc3ccc(C(F)(F)F)cn3)c2)CC1 [PF-3845] | 1.2 | 0 | 0 | 0 | 0 | 3.3 | 0 | 1.1 | 1.6 | 1.7 | 0.4 | 0.1 | 2.3 | 1.5 | 1.9 | 2.5 |
| CC(C)N(CCCNC(=O)Nc1ccc(C(C)(C)C)cc1)C[C@H]1O[C@@H](n2cc(Br)c3c(N)ncnc32)[C@H](O)[C@@H]1O [SGC0946] | 0.9 | 0.6 | 2.5 | 0.95 | 0 | 2.8 | 0 | 1.2 | 2 | 0 | 3.95 | 1.4 | 0.1 | 0.1 | 1.8 | 3.3 |
